# Data published in patent US7902373B2 (Pfizer Inc, priority 2006, dated 2011).
# Molecular target: human recombinant H-PGDS (Homo sapiens, UniProt O60760)
# Test: Fluorescence intensity h-PGDS TBA enzyme assay
# Format: biochemical
# Conditions: Examples up to 622 (and 3a, 3b)
# Chain of human recombinant H-PGDS (O60760 whole entry): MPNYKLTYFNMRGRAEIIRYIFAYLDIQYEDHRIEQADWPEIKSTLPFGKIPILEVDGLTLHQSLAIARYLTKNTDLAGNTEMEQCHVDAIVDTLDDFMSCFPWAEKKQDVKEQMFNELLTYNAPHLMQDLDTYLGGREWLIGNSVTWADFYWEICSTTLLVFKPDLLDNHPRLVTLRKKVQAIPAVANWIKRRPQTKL
row,Structure (SMILES),IC50
1,"COCCCNc1nccc(CN2CCC(NC(=O)c3ccc(-c4cccc(F)c4)nc3)CC2)n1 [Example 391, 6-(3-Fluorophenyl)-N-[1-({2-[(3-methoxypropyl)amino]pyrimidin-4-yl}methyl)piperidin-4-yl]nicotinamide]",1.2 nM
2,"O=C(NC1CCN(Cc2ccn(CCc3ccccc3)n2)CC1)c1ccc(-c2cccc(F)c2)nc1 [Example 394, 6-(3-Fluorophenyl)-N-(1-{[1-(2-phenylethyl)-1H-pyrazol-3-yl]methyl}piperidin-4-yl)nicotinamide]",0.379 nM
3,"O=C(NC1CCN(Cc2ccnn2CCc2ccccc2)CC1)c1ccc(-c2cccc(F)c2)nc1 [Example 395, 6-(3-Fluorophenyl)-N-(1-{[1-(2-phenylethyl)-1H-pyrazol-5-yl]methyl}piperidin-4-yl)nicotinamide]",1.43 nM
4,"COCCOc1c(CN2CCC(NC(=O)c3ccc(-c4cccc(F)c4)nc3)CC2)cccc1OC [Example 404, 6-(3-Fluorophenyl)-N-{1-[3-methoxy-2-(2-methoxyethoxy)benzyl]piperidin-4-yl}nicotinamide]",0.469 nM
5,"COc1cc(CN2CCC(NC(=O)c3ccc(-c4cccc(F)c4)nc3)CC2)ccc1OCC(F)F [Example 405, N-{1-[(2,2-Difluoroethoxy)-3-methoxybenzyl]piperidin-4-yl}-6-(3-fluorophenyl)nicotinamide]",0.483 nM
6,"O=C(NC1CCN(Cc2cn3ccccc3n2)CC1)c1ccc(-c2cccc(F)c2)nc1 [Example 406, 6-(3-Fluorophenyl)-N-[1-(imidazo[1,2-a]pyridin-2-ylmethyl)piperidin-4-yl]nicotinamide]",2.36 nM
7,"O=C(NC1CCN(Cc2nc(-c3ccc(F)cc3)cs2)CC1)c1ccc(-c2cccc(F)c2)nc1 [Example 407, 6-(3-Fluorophenyl)-N-(1-{[4-(4-fluorophenyl)-1,3-thiazol-2-yl]methyl}piperidin-4-yl)nicotinamide]",5.4 nM
8,"O=C(NC1CCN(Cc2nc(-c3cccc(F)c3)cs2)CC1)c1ccc(-c2cccc(F)c2)nc1 [Example 408, 6-(3-Fluorophenyl)-N-(1-{[4-(3-fluorophenyl)-1,3-thiazol-2-yl]methyl}piperidin-4-yl)nicotinamide]",61.9 nM
9,"COc1cccc(-c2csc(CN3CCC(NC(=O)c4ccc(-c5cccc(F)c5)nc4)CC3)n2)c1 [Example 409, 6-(3-Fluorophenyl)-N-(1-{[4-(3-methoxyphenyl)-1,3-thiazol-2-yl]methyl}piperidin-4-yl)nicotinamide]",2.25 nM
10,"N#Cc1cccc(-c2csc(CN3CCC(NC(=O)c4ccc(-c5cccc(F)c5)nc4)CC3)n2)c1 [Example 410, N-(1-{[4-(3-Cyanophenyl)-1,3-thiazol-2-yl]methyl}piperidin-4-yl)-6-(3-fluorophenyl)nicotinamide]",16.3 nM
11,"Cc1sc(CN2CCC(NC(=O)c3ccc(-c4cccc(F)c4)nc3)CC2)nc1-c1ccccc1 [Example 412, 6-(3-Fluorophenyl)-N-{1-[(5-methyl-4-phenyl-13-thiazol-2-yl)methyl]piperidin-4-yl}nicotinamide]",4.12 nM
12,"O=C(NC1CCN(Cc2nc3ccccn3c2Br)CC1)c1ccc(-c2cccc(F)c2)nc1 [Example 414, N-{1-[(3-Bromoimidazo[1,2-a]pyridin-2-yl)methyl]piperidin-4-yl}-6-(3-fluorophenyl)nicotinamide]",0.35 nM
13,"CN(C)CCCOc1cccc(CN2CCC(NC(=O)c3ccc(-c4cccc(F)c4)nc3)CC2)c1 [Example 417, N-(1-{3-[3-(Dimethylamino)propoxy]benzyl}piperidin-4-yl)-6-(3-fluorophenyl)nicotinamide]",1.1 nM
14,"O=C(NC1CCN(Cc2cccc3c2OCCO3)CC1)c1ccc(-c2cccc(F)c2)nc1 [Example 418, N-[1-(2,3-Dihydro-1,4-benzodioxin-5-ylmethyl)piperidin-4-yl]-6-(3-fluorophenyl)nicotinamide]",0.427 nM
15,"CC(C)(O)c1ccc(CN2CCC(NC(=O)c3ccc(-c4cccc(F)c4)nc3)CC2)c(F)c1 [Example 419, N-[1-(2-Fluoro-4-(1-hydroxy-1-methylethyl)benzyl]piperidin-4-yl}-6-(3-fluorophenyl)nicotinamide]",1.03 nM
16,"COCCn1c(CN2CCC(NC(=O)c3ccc(-c4cccc(F)c4)nc3)CC2)nc2ccccc21 [Example 420, 6-(3-Fluorophenyl)-N-(1-{[1-(2-methoxyethyl)-1H-benzimidazol-2-yl]methyl}piperidin-4-yl)nicotinamide]",3.4 nM
17,O=C(NC1CCN(Cc2nc3ccccc3n2CCF)CC1)c1ccc(-c2cccc(F)c2)nc1 [Example 423],0.931 nM
18,O=C(NC1CCN(Cc2nc3ccccc3n2CF)CC1)c1ccc(-c2cccc(F)c2)nc1 [Example 424],1.3 nM
19,"COc1ccc(CN2CCC(NC(=O)c3ccc(-c4cccc(F)c4)nc3)CC2)cc1OCC(F)F [Example 425, N-{1-[3-(2,2-Difluoroethyoxy)-4-methoxybenzyl]piperidin-4-yl}-6-(3-fluorophenyl)nicotinamide]",2.81 nM
20,"O=C(NC1CCN(Cc2coc(-c3ccccc3)n2)CC1)c1ccc(-c2cccc(F)c2)nc1 [Example 426, 6-(3-Fluorophenyl)-N-{1-[(2-phenyl-1,3-oxazol-4-yl)methyl]piperidin-4-yl}nicotinamide]",5.53 nM

# The remaining lines, values ahead:
row,IC50,Structure (SMILES)
1,11.6 nM,"CN(c1nccc(CN2CCC(NC(=O)c3ccc(-c4cccc(F)c4)nc3)CC2)n1)C1CCCCC1 [Example 390, N-[1-({2-[Cyclohexyl(methyl)amino]pyrimidin-4-yl}methyl)piperidin-4-yl]-6-(3-fluorophenyl)nicotinamide]"
2,0.849 nM,"CN(C)c1nccc(CN2CCC(NC(=O)c3ccc(-c4cccc(F)c4)nc3)CC2)n1 [Example 392, N-(1-{[2-(Dimethylamino)pyrimidin-4-yl]methyl}piperidin-4-yl)-6-(3-fluorophenyl)nicotinamide]"
3,1.18 nM,"O=C(NC1CCN(Cc2ccnc(NC3CC3)n2)CC1)c1ccc(-c2cccc(F)c2)nc1 [Example 393, N-(1-{[2-(Cyclopropylamino)pyrimidin-4-yl]methyl}piperidin-4-yl)-6-(3-fluorophenyl)nicotinamide]"
4,1.45 nM,"Cn1ccc(CN2CCC(NC(=O)c3ccc(-c4cccc(F)c4)nc3)CC2)n1 [Example 396, 6-(3-Fluorophenyl)-N-{1-[(1-methyl-1H-pyrazol-3-yl)methyl]piperidin-4-yl}nicotinamide]"
5,1.47 nM,"O=C(NC1CCN(Cc2ccnc(N3CCOCC3)n2)CC1)c1ccc(-c2cccc(F)c2)nc1 [Example 397, 6-(3-Fluorophenyl)-N-{1-[(2-morpholin-4-ylpyrimidin-4-yl)methyl]piperidin-4-yl}nicotinamide]"
6,8.56 nM,"CCN(C)c1ncc2c(n1)CCC(CN1CCC(NC(=O)c3ccc(-c4cccc(F)c4)nc3)CC1)C2 (stereo not shown) [Example 398, N-[1-({2-[Ethyl(methyl)amino]-5,6,7,8-tetrahydroquinazolin-6-yl}methyl)piperidin-4-yl]-6-(3-fluorophenyl)nicotinamide]"
7,1.02 nM,"O=C(NC1CCN(CC2CCc3nc(CC4CC4)ncc3C2)CC1)c1ccc(-c2cccc(F)c2)nc1 (stereo not shown) [Example 399, N-(1-{[2-(cyclopropylmethyl)-5,6,7,8-tetrahydroquinazolin-6-yl]methyl}piperidin-4-yl)-6-(3-fluorophenyl)nicotinamide]"
8,1.04 nM,"CC(C)c1ncc2c(n1)CCC(CN1CCC(NC(=O)c3ccc(-c4cccc(F)c4)nc3)CC1)C2 (stereo not shown) [Example 400, 6-(3-Fluorophenyl)-N-{1-[(2-isopropyl-5,6,7,8-tetrahydroquinazolin-6-yl)methyl]piperidin-4-yl}nicotinamide]"
9,0.574 nM,"Cc1ncc2c(n1)CCC(CN1CCC(NC(=O)c3ccc(-c4cccc(F)c4)nc3)CC1)C2 (stereo not shown) [Example 401, 6-(3-Fluorophenyl)-N-{1-[(2-methyl-5,6,7,8-tetrahydroquinazolin-6-yl)methyl]piperidin-4-yl}nicotinamide]"
10,1.64 nM,"CC(C)(C)c1ncc2c(n1)CCC(CN1CCC(NC(=O)c3ccc(-c4cccc(F)c4)nc3)CC1)C2 (stereo not shown) [Example 402, N-{1-[(2-tert-Butyl-5,6,7,8-tetrahydroquinazolin-6-yl)methyl]piperidin-4-yl}-6-(3-fluorophenyl)nicotinamide]"
11,0.121 nM,"CCCc1ncc2c(n1)CCC(CN1CCC(NC(=O)c3ccc(-c4cccc(F)c4)nc3)CC1)C2 (stereo not shown) [Example 403, 6-(3-Fluorophenyl)-N-{1-[(2-propyl-5,6,7,8-tetrahydroquinazolin-6-yl)methyl]piperidin-4-yl}nicotinamide]"
12,1.36 nM,"CCc1csc(CN2CCC(NC(=O)c3ccc(-c4cccc(F)c4)nc3)CC2)n1 [Example 411, N-{1-[(4-Ethyl-1,3-thiazol-2-yl)methyl]piperidin-4-yl}-6-(3-fluorophenyl)nicotinamide]"
13,1.96 nM,"Cn1c(CN2CCC(NC(=O)c3ccc(-c4cccc(F)c4)nc3)CC2)nc2cccnc21 [Example 415, 6-(3-Fluorophenyl)-N-{1-[(3-methyl-3H-imidazo[4,5-b]pyridin-2-yl)methyl]piperidin-4-yl}nicotinamide]"
14,1.68 nM,"CC(C)(C)OC(=O)NC1CCC(CN2CCC(NC(=O)c3ccc(-c4cccc(F)c4)nc3)CC2)CC1 (stereo not shown) [Example 416, tert-Butyl (4-{[4-({[6-(3-fluorophenyl)pyridin-3-yl]carbonyl}amino)piperidin-1-yl]methyl}cyclohexyl)carbamate]"
15,1.34 nM,"Cn1c(CN2CCC(NC(=O)c3ccc(-c4cccc(F)c4)nc3)CC2)nc2ncccc21 [Example 421, 6-(3-Fluorophenyl)-N-{1-[(1-methyl-1H-imidazo[4,5-b]pyridin-2-yl)methyl]piperidin-4-yl}nicotinamide]"
16,2.53 nM,"O=C(NC1CCN(Cc2nc3ccccc3n2C2CC2)CC1)c1ccc(-c2cccc(F)c2)nc1 [Example 422, N-{1-[(1-Cyclopropyl-1H-benzimidazol-2-yl)methyl]piperidin-4-yl}-6-(3-fluorophenyl)nicotinamide]"
17,0.656 nM,"CCCn1cc(CN2CCC(NC(=O)c3ccc(-c4cccc(F)c4)nc3)CC2)c(C)n1 [Example 427, 6-(3-Fluorophenyl)-N-{1-[(3-methyl-1-propyl-1H-pyrazol-4-yl)methyl]piperidin-4-yl}nicotinamide]"
